The target of one data set is T1, CYP2C9 (Homo sapiens, UniProt P11712).
T1 construct: Pooled human liver microsome was used, and tolbutamide was used as a substrate; from tissue; host or cells: pooled human liver microsomes
Description: Hepatic drug-metabolizing enzyme inhibitory activity in humans (CYP2C9). The following applies: pooled human liver microsome, tolbutamide 200 μmol/L, 37° C., 30 minutes; 80a as free base; read-out: IC50 (CYP2C9, tolbutamide metabolite). The data set is classed as in vitro ADME. As for the experimental part: As test compounds, the compounds of Examples 80a, 83a, 108a, 117a, 123a, 128a, 139a, 142a, and 143a were used. Note that the compound of Example 80a was used in the form of free base.
Pooled human liver microsome was used, and tolbutamide was used as a substrate. The reaction was performed in a phosphate buffer (100 mmol/L, pH 7.4), and the final concentrations in the reaction system were adjusted to 0.5 mg/mL of human liver microsome protein, 200 μmol/L of the substrate, 1.55 mmol/L of oxidized nicotinamide adenine dinucleotide phosphate (NADP+), 3.3 mmol/L of glucose-6-phosphate, 3.3 mmol/L of magnesium chloride, and 0.4 Units/mL of glucose-6-phosphate dehydrogenase (G6PDH). The final concentration of each compound in the reaction solution was adjusted to 0.08 to 50 μg/mL. These reaction solutions were each subjected to reaction at 37° C. for 30 minutes. The reaction was terminated with an equal amount of acetonitrile. After centrifugation, the concentration of a tolbutamide metabolite in the supernatant was quantitatively measured by LC-MS/MS. The inhibitory activity was determined as IC50. As a positive control, sulfaphenazole was used.
Background: Liver microsomes are a subcellular fraction often used to study metabolism.

The subject of data set [1] is type I collagen α1 chain mRNA in WI-38 cells. Description: Type I collagen α1 chain mRNA expression inhibition test. Format: cell-based. The following applies: Homo sapiens, read-out: Inhibition rate (%) at 10 μmol/L. The protocol: Human embryonic lung fibroblast cell line WI-38 cells were suspended in a Dulbecco's modified Eagle's medium containing 10% fetal calf serum, and 7.5×10^4 cells were inoculated on a 12-well plate and cultured for 3 days, or 1.5×10^5 cells were inoculated and cultured for 2 days. After the growth of the cells to a subconfluent state, the culture medium was changed to a Dulbecco's modified Eagle's medium containing 0.4% fetal calf serum and 50 μg/mL ascorbic acid, and the cells were further cultured for 24 hours. Then, a test compound was added thereto, and, one hour later, TGF-β1 was added at a final concentration of 1 ng/mL. Twenty-four hours after the addition, the total RNA was extracted from the cells using an RNA extraction kit (SV Total RNA Isolation System, Promega), and cDNA was synthesized using a reverse transcriptase (ReverTra Ace, TOYOBO). The expression level of the type I collagen al chain mRNA was analyzed with a real-time PCR instrument (ABI PRISM 7700 Sequence Detection System, Applied Biosystems) by a real-time PCR method using a premix reagent of real-time PCR (SYBR Premix Ex Taq or SYBR Premix Ex Taq II (Perfect Real Time), TaKaRa). A PCR reaction was conducted with diluted cDNA as a template, using primers specific for a type I collagen α1 chain gene or a GAPDH gene as an internal standard, and the reaction product was measured. The PCR reaction was conducted by incubation at 95° C. for 10 seconds and 45 cycles of denaturation at 95° C. for 5 seconds and annealing/extension at 60° C. for 30 seconds. The expression level of the type I collagen α1 chain mRNA was corrected with GAPDH and was expressed as a relative value when the expression level obtained in the absence of the test compound was defined as 100%.

Data set [2] relates to bleomycin-induced lung fibrosis (lung collagen amount). Description: Mouse bleomycin-induced lung fibrosis. Format: in vivo, mice C57BL/6N. Conditions: po, 672 h, read-out: lung collagen amount low compared with that of the control group. As for the experimental part: The test was conducted using 8- to 10.5-week-old male mice C57BL/6N (Charles River Laboratories Japan, Inc.). Bleomycin (Nippon Kayaku Co., Ltd.) was dissolved in physiological saline in a concentration of 1.0 or 1.5 mg/mL, and 2 μL/g thereof was intranasally administered to each mouse to evoke lung fibrosis. A test compound was dissolved or suspended in a 10% aqueous solution of polyoxyethylene castor oil (trade name: Cremophor EL) or in water and orally administered in an amount of 10 mg/kg twice a day from the 14th to the 28th day from the evocation. In a control group, a 10% aqueous solution of polyoxyethylene castor oil or water was administered in the same manner. The lung was extracted from each mouse on the 28th day from the evocation, and collagen was quantitatively measured. The extracted lung was homogenized in a 0.5 mol/L aqueous solution of acetic acid containing a protease inhibitor cocktail (Complete, EDTA-free, Roche Diagnostics) in an amount of one tablet/50 mL, and water-soluble collagen was extracted in the presence of 10 mg/mL pepsin (Sigma) overnight. The amount of collagen was measured using a kit (Sircol Soluble Collagen assay kit, Biocolor).
The inhibition rate was determined by the following expression: Inhibition rate (%)=[1−(lung collagen amount in test compound administration group)/(lung collagen amount in control group)]×100

A further data set relates to SD-line male rats. Put plainly: Repeated administration toxicity test in rat (oral administration, two weeks). The data set is classed as in vivo. The following applies: 1000 mg/kg, 5 rats per group, 80a and 1b as sodium salts. As for the experimental part:
As test compounds, the compounds of Examples 80a, 122a, 139a, 1b, 16b, and 19b were used. Note that the compounds of Examples 80a and 1b were used in the forms of sodium salts.
Each test compound was suspended in a 0.5% methylcellulose solution or distilled water to prepare a 100 mg/mL suspension. The suspension of the test compound was orally administered (10 mL/kg, test compound: 1000 mg/kg) to SD-line male rats (6-week-old, 5 rats for each group).

Where [3] appears, read: 10 μmol/L test compound, WI-38 cells, TGF-β1 1 ng/mL, 24 hours, Table 4a.
The mark [4] stands for this setting: orally 10 mg/kg twice a day, 14th to 28th day, lung on 28th day, 23a, 1b, 7c as sodium salts, 122a, 143a as hydrochloric acid salts.
Setting [5] is: 10 μmol/L test compound, WI-38 cells, TGF-β1 1 ng/mL, 24 hours, Table 4b.

The structures appear in SMILES notation. Counter-ions that a name gives are not always drawn. Like-named read-outs stand apart in the source and are kept apart here. Where only a bound is given, the exact number is not on record here.

T1 sequence (P11712 whole entry): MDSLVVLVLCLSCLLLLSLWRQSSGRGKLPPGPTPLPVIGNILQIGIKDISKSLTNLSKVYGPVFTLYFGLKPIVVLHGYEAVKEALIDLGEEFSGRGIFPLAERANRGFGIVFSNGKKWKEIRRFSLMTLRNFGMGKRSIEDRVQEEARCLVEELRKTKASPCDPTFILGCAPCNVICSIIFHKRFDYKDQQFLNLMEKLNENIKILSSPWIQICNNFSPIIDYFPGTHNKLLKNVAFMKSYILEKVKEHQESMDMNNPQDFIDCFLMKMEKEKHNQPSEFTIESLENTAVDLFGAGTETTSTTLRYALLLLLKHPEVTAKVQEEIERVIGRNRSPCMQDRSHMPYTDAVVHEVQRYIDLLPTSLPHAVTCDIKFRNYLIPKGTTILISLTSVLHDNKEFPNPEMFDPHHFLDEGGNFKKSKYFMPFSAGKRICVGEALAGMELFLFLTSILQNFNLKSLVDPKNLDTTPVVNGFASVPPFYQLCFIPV

With `CN1CCN(CCOc2ccc(O)c(C(=O)Nc3cc(-c4ccccc4)ccc3C(=O)O)c2)CC1` [Example 142a, 2-(2-hydroxy-5-(2-(4-methylpiperazin-1-yl)ethoxy)benzamido)-4-phenylbenzoic acid dimethanesulfonate], on CYP2C9, the IC50 (usually the midpoint of a concentration-inhibition curve) was over 105 µM. Also, the inhibition at 10 µM in data set [1] (setting [3]) was found to be 90%.
On to `CCN1CCN(Cc2ccc(O)c(C(=O)Nc3cc(-c4ccccc4)ccc3C(=O)O)c2)CC1` [Example 123a, 2-(5-((4-Ethylpiperazin-1-yl)methyl)-2-hydroxybenzamido)-4-phenylbenzoic acid dimethanesulfonate], for which the IC50 on CYP2C9 is over 76.7 µM.
For the compound `CN(C)C1CCN(Cc2ccc(O)c(C(=O)Nc3cc(-c4ccccc4)ccc3C(=O)O)c2)CC1` [Example 128a, 2-(5-((4-(Dimethylamino)piperidin-1-yl)methyl)-2-hydroxybenzamido)-4-phenylbenzoic acid dimethanesulfonate], the IC50 at CYP2C9 is over 106 µM.
For the compound `CCNc1ccccc1-c1ccc(C(=O)[O-])c(NC(=O)c2cncc(-c3ccccc3)c2)c1.[Na+]` [16b, sodium 4-(2-(ethylamino)phenyl)-2-(5-phenylpyridine-3-carboxamido)benzoate], the inhibition in vivo at 10 mg/kg in data set [2] (setting [4]) is at least 30%. Further, the “survival on the 14th day from the administration” value (shortened to “survival on the 14th day”) with SD-line male rats is “all rats survived”. Besides, the inhibition at 10 µM in data set [1] (setting [5]) turned out to be 84%.
For the compound `O=C(Nc1cc(-c2ccccc2)ccc1C(=O)O)c1cc(N2CCOCC2)ccc1O` [Example 83a, 2-(2-Hydroxy-5-(morpholin-4-yl)benzamido)-4-phenylbenzoic acid hydrochloride], the inhibition in vivo at 10 mg/kg in data set [2] (setting [4]) is at least 30%. For the same compound, the IC50 on CYP2C9 was over 110 µM. Further, the inhibition at 10 µM in data set [1] (setting [3]) was found to be 88%.
The corresponding values for `CCN1CCN(CCOc2ccc(O)c(C(=O)Nc3cc(-c4ccccc4)ccc3C(=O)O)c2)CC1` [Example 143a, 2-(5-(2-(4-ethylpiperazin-1-yl)ethoxy)-2-hydroxybenzamido)-4-phenylbenzoic acid dimethanesulfonate] are at least 30%, over 102 µM and 89%.
Turning to `CN1CCN(Cc2ccc(O)c(C(=O)Nc3cc(-c4ccccc4)ccc3C(=O)O)c2)CC1` [Example 122a, 2-(2-hydroxy-5-((4-methylpiperazin-1-yl)methyl)benzamido)-4-phenylbenzoic acid dimethanesulfonate], the inhibition in vivo at 10 mg/kg in data set [2] (setting [4]) is at least 30%. The “survival on the 14th day” value in the data set on SD-line male rats is given as “all rats survived”. Also, in data set [1] (setting [3]), the inhibition at 10 µM was found to be 88%.
In the case of `CN1CCC(Oc2ccc(O)c(C(=O)Nc3cc(-c4ccccc4)ccc3C(=O)O)c2)CC1` [Example 108a, 2-(2-hydroxy-5-((1-methylpiperidin-4-yl)oxy)benzamido)-4-phenylbenzoic acid hydrochloride], the inhibition in vivo at 10 mg/kg in data set [2] is at least 30%. Besides, the IC50 at CYP2C9 is over 112 µM. Further, the inhibition at 10 µM in data set [1] (setting [3]) stood at 94%.
Turning to `O=C(Nc1cc(-c2ccccc2)ccc1C(=O)O)c1cncc(-c2ccccc2)c1` [1b, 4-phenyl-2-(5-phenylpyridine-3-carboxamido)benzoic acid], the inhibition in vivo at 10 mg/kg in data set [2] (setting [4]) is at least 30%. In addition, the “survival on the 14th day” value in the data set with SD-line male rats is listed as “all rats survived”. The inhibition at 10 µM in data set [1] (setting [5]) came out at 72%.
For the compound `CN1CCN(CCc2ccc(O)c(C(=O)Nc3cc(-c4ccccc4)ccc3C(=O)O)c2)CC1` [Example 117a, 2-(2-hydroxy-5-(2-(4-methylpiperazin-1-yl)ethyl)benzamido)-4-phenylbenzoic acid dimethanesulfonate], at CYP2C9, the IC50 was over 109 µM. The inhibition at 10 µM in data set [1] (setting [3]) came out at 90%.
As for `O=C(Nc1cc(-c2ccoc2)ccc1C(=O)O)c1cncc(-c2ccccc2)c1` [57b, Sodium 4-(furan-3-yl)-2-(5-phenylpyridine-3-carboxamido)benzoate], in data set [2], the inhibition in vivo at 10 mg/kg is at least 30%. For the same compound, the inhibition at 10 µM in data set [1] (WI-38, 24 h) came to 84%.
For `CC1CCCN(c2ccc(O)c(C(=O)Nc3cc(-c4ccccc4)ccc3C(=O)O)c2)C1` (stereo not drawn) [166a, 2-(2-Hydroxy-5-(3-methylpiperidin-1-yl)benzamido)-4-phenylbenzoic acid hydrochloride], the inhibition at 10 µM in data set [1] (setting [3]) came to 95%.
Turning to `O=C(Nc1cc(-c2ccccc2)ccc1C(=O)O)c1cc(-c2cccnc2)ccc1O` [Example 23a, 2-(2-hydroxy-5-(pyridin-3-yl)benzamido)-4-phenylbenzoic acid], in data set [2] (setting [4]), the inhibition in vivo at 10 mg/kg is at least 30%. The inhibition at 10 µM in data set [1] (setting [3]) worked out at 91%.
Consider `O=C(Nc1cc(-c2ccccc2)ccc1C(=O)O)c1ccc(-c2ccccc2)nc1` [3b, 4-phenyl-2-(6-phenylpyridine-3-carboxamido)benzoic acid], for which, in data set [1] (setting [5]), the inhibition at 10 µM came out at 83%.
As to `CN(C)CCN(C)Cc1ccc(O)c(C(=O)Nc2cc(-c3ccccc3)ccc2C(=O)O)c1` [Example 134a, 2-(5-(((2-(dimethylamino)ethyl)(methyl)amino)methyl)-2-hydroxybenzamido)-4-phenylbenzoic acid], the inhibition at 10 µM in data set [1] (setting [3]) amounted to 90%.
Still for that read-out and setting: under `CN1CCN(c2ccc(O)c(C(=O)Nc3cc(-c4ccccc4)ccc3C(=O)O)c2)CC1` [Example 92a, 2-(2-hydroxy-5-(4-methylpiperazin-1-yl)benzamido)-4-phenylbenzoic acid dimethanesulfonate] stands 84%.
`O=C(Nc1cc(-c2ccccc2OC(F)F)ccc1C(=O)O)c1cncc(-c2ccccc2)c1` [9b]: in data set [1] (WI-38, 24 h), the inhibition at 10 µM is 84%.
With `CN1CCC(CCOc2ccc(O)c(C(=O)Nc3cc(-c4ccccc4)ccc3C(=O)O)c2)CC1` [190a, 2-(2-Hydroxy-5-(2-(1-methylpiperidin-4-yl)ethoxy)benzamido)-4-phenylbenzoic acid hydrochloride], the inhibition at 10 µM in data set [1] (setting [3]) stood at 86%.
Take `CCN(CCN(C)C)c1ccc(O)c(C(=O)Nc2cc(-c3ccccc3)ccc2C(=O)O)c1` [Example 104a, 2-(5-((2-(Dimethylamino)ethyl)(ethyl)amino)-2-hydroxybenzamido)-4-phenylbenzoic acid]: in data set [1] (setting [3]), the inhibition at 10 µM stood at 92%.
Consider `O=C(Nc1cc(-c2ccc[nH]2)ccc1C(=O)O)c1cncc(-c2ccccc2)c1` [58b, 2-(5-phenylpyridine-3-carboxamido)-4-(1H-pyrrol-2-yl)benzoic acid], for which the inhibition at 10 µM in data set [1] (setting [5]) came out at 78%.
